We go through one compound from ChEMBL document CHEMBL1150846, “Thorectandrols A and B, new cytotoxic sesterterpenes from the marine sponge Thorectandra species” (J Nat Prod, 2001).

One test has as its system MCF7. The test can be described thus: Cytotoxicity against human MCF7 cells after 2 days by XTT assay. Type of test: functional, cell-based. The following applies: MCF7, 48 h. Background: Tetrazolium dyes change colour on reduction, which living cells bring about.
The subject of another test is Malme-3M. Kind of test: Cytotoxicity against human MALME-3M cells after 2 days by XTT assay. Type of test: functional, cell-based. The following applies: 48 h.

≈ marks a conversion by molar mass, not a printed value.

Regarding `C=C1CCC[C@@H]2[C@@](C)(CC/C(C)=C/C[C@@H](O)C3=CC(=O)OC3O)[C@@H](C)CC[C@@]12C` (some centres not stated) [PALAUOLOL], the IC50 (as a rule, the concentration that inhibits the measured activity by half) in the test on MCF7 was 14.2 µg/mL (≈ 35.3 µM); in the test on Malme-3M, 0.46 µg/mL (≈ 1.14 µM).
